Measurements taken from ChEMBL document CHEMBL1142635, “Lupene-type triterpenes from Periploca aphylla” (J Nat Prod, 2000).
The source made the active and inactive calls. The calls are words filed in the database; no cut-off is given here.

Legend:
[1] = Inhibition of alpha-glucosidase 4
Bacillus cereus = test: Antibacterial activity against Bacillus cereus at 100 ug after 24 hrs by agar well diffusion method; format: functional, organism-based
Streptococcus pyogenes = test: Antibacterial activity against Streptococcus pyogenes at 100 ug after 24 hrs by agar well diffusion method; format: functional, organism-based
Staphylococcus aureus = test: Antibacterial activity against […] at 100 ug after 24 hrs by agar well diffusion method; format: functional, organism-based
Escherichia coli = test: Antibacterial activity against Escherichia coli at 100 ug after 24 hrs by agar well diffusion method; format: functional, organism-based
Proteus mirabilis = test: Antibacterial activity against Proteus mirabilis at 100 ug after 24 hrs by agar well diffusion method; format: functional, organism-based
Salmonella typhi = test: Antibacterial activity against Salmonella typhi at 100 ug after 24 hrs by agar well diffusion method; format: functional, organism-based; settings: Salmonella enterica subsp. enterica serovar Typhi

SMILES	IC50 [1] [µM]	Activity (Bacillus cereus)	Activity (Streptococcus pyogenes)	Activity (Staphylococcus aureus)	Activity (Escherichia coli)	Activity (Proteus mirabilis)	Activity (Salmonella typhi)
C=C(C)[C@@H]1CC[C@]2(C)CC[C@]3(C)[C@H](CC[C@@H]4[C@@]5(C)CC[C@H](O)C(C)(C)[C@@H]5[C@@H](O)C[C@]43C)[C@@H]12	42.5						
C=C(C)[C@@H]1CC[C@]2(C)CC[C@]3(C)[C@H](CC[C@@H]4[C@@]5(C)CC[C@H](OC(=O)CCCCCCCCCCCCCCCCC)C(C)(C)[C@@H]5[C@@H](O)C[C@]43C)[C@@H]12		inactive	inactive	inactive	inactive	inactive	inactive
